Laboratory results from EP0618796B1 (priority 1991, dated 1993).

test system: not given; assay: not given; settings: intramuscular administration during severe migraine; hydroxyzine 50 mg; compared with placebo; cited from earlier work

SMILES	effectiveness in the treatment of pain associated with classic migraine
OCCOCCN1CCN(C(c2ccccc2)c2ccc(Cl)cc2)CC1 (stereo not shown) [Hydroxyzine]	no more effective than a placebo
Oc1ccc2c3c1O[C@H]1[C@@H](O)CC[C@@]4(O)[C@@H](C2)N(CC2CCC2)CC[C@]314 [nalbuphine]	no more effective than a placebo

test system: RAT MAST CELL; assay: Inhibition of rat mast cell degranulation in vitro (histamine release); type: cell-based, rats; settings: ID20 = inhibitory dose causing 20% inhibition, mast cells stimulated in vitro
From the text: First, mast cells from rats (peritoneal cavity) or humans (chronic peritoneal dialysis fluid) are purified; otherwise, rat basophilic leukemia (RBL) cells are kept in culture. Any of these mast cells are then exposed to various concentrations of inhibitory compounds to allow binding of the inhibitor to the receptor sites before testing their efficacy with respect to inhibition of mast cell degranulation. They are then used as such or washed free of unbound drug before exposure to stimuli known to induce degranulation. Compounds which are inhibitory prevent the stimulus from causing degranulation by binding to specific receptors or inactivating a crucial step in the degranulation process.
The mast cell degranulation blocking agent is administered in a pharmaceutically effective amount. The dosage range for pharmaceutical effectiveness can be determined by reference to standard laboratory tests for inhibition of mast cell degranulation and by the dosages used for such agents in other conditions. The pharmaceutically effective dose of the mast cell degranulation blocking agent can be approximated by its ID20, which is defined as the dose necessary to cause 20% inhibition in mast cells when applied to mast cells stimulated in vitro. The ID20 of selected inhibitors of the anti-histamine category is as follows: Table 2

SMILES	IC20 [µM]
CN1CCC(=C2c3ccccc3CCc3cccnc32)CC1 [Azatadine]	0.1
CN1CCC(=C2c3ccccc3C=Cc3ccccc32)CC1 [Cyproheptadine]	5
OCCOCCN1CCN(C(c2ccccc2)c2ccc(Cl)cc2)CC1 (stereo not shown) [Hydroxyzine]	50
CN1CCC(=C2c3ccccc3CC(=O)c3sccc32)CC1 [Ketotifen]	10
O=c1[nH]c2ccccc2n1CCCN1CCN(C(c2ccccc2)c2ccccc2)CC1 [Oxatomide]	0.1
CC(C)(C)c1ccc(C(O)CCCN2CCC(C(O)(c3ccccc3)c3ccccc3)CC2)cc1 (stereo not shown) [Terfenadine]	5

test system: Rat Mesentery Mast Cells; assay: not given; settings: ED20 = effective dose causing 20% secretion; antihistamines which cause mast cell degranulation; cited from earlier work

SMILES	ED20 for Histamine Release
CN(C)CCC(c1ccc(Cl)cc1)c1ccccn1 (stereo not shown) [Clorphenyramine]	10^-3 M
CN1CCN(C(c2ccccc2)c2ccccc2)CC1 [Cyclizine]	0.0005 M
CN(C)CCOC(c1ccccc1)c1ccccc1 [Diphenhydramine]	10^-3 M
CC(CN1c2ccccc2Sc2ccccc21)N(C)C (stereo not shown) [Promethazine]	10^-4 M

test system: not given; assay: not given; settings: administered individually, without analgesic; cited from earlier work

SMILES	effectiveness against migraine
CC(C)(C)c1ccc(CN2CCN(C(c3ccccc3)c3ccc(Cl)cc3)CC2)cc1 (stereo not shown) [Buclizine, buclizine]	ineffective
